Measured values from ChEMBL document CHEMBL5303766, “Data for DCP probe FHT-2344” (2022).
Active and inactive are the calls of the source. The rule behind the calls is not given here.

Legend:
[1] = target: SWI/SNF-related matrix-associated actin-dependent regulator of chromatin subfamily A member 2 (Homo sapiens, UniProt P51531); experiment: Measurement of the ATPase catalytic activity using the ADP-Glo detection (SMARCA2); type: functional
[2] = target: T1, Serine/threonine-protein kinase Nek1 (Homo sapiens) (UniProt Q96PY6); experiment: NEK1 SGC Tm panel (DSF); details: for ΔTm: Compound concentration 10.0 uM
T1 sequence (whole entry): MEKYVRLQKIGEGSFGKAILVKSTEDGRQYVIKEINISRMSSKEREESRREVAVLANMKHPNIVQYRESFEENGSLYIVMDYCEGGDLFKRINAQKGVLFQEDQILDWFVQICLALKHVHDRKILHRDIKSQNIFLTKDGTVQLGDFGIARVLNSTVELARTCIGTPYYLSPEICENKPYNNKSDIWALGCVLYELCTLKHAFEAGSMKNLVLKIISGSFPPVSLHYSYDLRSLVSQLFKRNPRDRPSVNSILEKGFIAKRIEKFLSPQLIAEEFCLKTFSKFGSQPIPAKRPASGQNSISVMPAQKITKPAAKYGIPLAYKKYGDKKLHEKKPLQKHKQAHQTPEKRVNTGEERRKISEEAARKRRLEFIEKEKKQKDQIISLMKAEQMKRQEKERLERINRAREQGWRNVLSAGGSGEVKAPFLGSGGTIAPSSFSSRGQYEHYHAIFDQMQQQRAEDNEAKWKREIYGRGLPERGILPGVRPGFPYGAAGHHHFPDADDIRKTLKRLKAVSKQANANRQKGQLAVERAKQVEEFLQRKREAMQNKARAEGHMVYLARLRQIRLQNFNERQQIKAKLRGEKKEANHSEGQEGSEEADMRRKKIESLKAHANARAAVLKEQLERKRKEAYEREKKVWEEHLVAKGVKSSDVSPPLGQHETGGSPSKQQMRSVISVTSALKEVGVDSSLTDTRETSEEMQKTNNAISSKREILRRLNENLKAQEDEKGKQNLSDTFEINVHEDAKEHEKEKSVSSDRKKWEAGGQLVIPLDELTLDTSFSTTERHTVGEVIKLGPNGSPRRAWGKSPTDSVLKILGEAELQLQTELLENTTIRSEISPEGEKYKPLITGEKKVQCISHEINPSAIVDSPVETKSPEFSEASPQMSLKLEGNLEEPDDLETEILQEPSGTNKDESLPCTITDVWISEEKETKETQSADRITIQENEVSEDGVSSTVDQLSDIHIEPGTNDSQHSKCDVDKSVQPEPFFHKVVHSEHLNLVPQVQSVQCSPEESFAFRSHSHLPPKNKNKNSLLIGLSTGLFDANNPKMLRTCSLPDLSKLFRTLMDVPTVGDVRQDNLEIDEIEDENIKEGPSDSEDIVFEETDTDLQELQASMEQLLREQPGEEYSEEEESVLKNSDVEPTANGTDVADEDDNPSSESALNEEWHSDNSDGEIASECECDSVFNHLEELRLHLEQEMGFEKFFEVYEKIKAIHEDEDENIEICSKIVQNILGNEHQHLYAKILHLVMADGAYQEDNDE

Peregrin (Homo sapiens) = target: T2, Peregrin (Homo sapiens) (UniProt P55201); experiment: BRPF1 SGC Tm panel (DSF); details: for ΔTm: Compound concentration 10.0 uM
T2 sequence (whole entry): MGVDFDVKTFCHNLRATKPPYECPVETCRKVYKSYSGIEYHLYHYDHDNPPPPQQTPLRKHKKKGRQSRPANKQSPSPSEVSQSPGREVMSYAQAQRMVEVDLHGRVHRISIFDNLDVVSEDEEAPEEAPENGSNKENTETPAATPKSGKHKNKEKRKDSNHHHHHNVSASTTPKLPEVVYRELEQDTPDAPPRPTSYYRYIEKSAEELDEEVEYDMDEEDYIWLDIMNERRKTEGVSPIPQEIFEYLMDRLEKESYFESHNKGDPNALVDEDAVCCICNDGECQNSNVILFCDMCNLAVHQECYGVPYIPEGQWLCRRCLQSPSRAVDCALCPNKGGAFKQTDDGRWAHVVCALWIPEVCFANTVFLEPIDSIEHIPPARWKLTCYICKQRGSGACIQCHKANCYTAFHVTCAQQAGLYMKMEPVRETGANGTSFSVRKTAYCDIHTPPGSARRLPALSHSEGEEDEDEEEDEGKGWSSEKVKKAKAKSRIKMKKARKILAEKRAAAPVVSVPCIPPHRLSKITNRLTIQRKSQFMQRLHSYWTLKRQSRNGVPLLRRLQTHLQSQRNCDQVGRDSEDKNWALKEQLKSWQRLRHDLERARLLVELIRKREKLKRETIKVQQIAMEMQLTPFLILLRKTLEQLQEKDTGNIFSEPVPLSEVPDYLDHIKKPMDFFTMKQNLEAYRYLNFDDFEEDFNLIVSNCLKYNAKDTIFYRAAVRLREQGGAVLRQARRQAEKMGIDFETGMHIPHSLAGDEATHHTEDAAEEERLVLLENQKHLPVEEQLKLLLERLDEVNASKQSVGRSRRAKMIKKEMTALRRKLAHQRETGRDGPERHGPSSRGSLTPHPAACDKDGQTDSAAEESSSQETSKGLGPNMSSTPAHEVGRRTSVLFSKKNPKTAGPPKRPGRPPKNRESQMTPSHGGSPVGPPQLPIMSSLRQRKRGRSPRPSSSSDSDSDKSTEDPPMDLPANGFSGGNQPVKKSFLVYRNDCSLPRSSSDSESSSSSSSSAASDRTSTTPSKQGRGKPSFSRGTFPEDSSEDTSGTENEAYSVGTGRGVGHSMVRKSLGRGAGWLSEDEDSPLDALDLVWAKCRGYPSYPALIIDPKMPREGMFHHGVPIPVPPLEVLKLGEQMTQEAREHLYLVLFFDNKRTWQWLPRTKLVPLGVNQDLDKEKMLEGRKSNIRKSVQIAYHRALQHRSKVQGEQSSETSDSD

SWI/SNF-related matrix-associated actin-dependent regulator of chromatin subfamily A member 2, sequence (P51531 whole entry): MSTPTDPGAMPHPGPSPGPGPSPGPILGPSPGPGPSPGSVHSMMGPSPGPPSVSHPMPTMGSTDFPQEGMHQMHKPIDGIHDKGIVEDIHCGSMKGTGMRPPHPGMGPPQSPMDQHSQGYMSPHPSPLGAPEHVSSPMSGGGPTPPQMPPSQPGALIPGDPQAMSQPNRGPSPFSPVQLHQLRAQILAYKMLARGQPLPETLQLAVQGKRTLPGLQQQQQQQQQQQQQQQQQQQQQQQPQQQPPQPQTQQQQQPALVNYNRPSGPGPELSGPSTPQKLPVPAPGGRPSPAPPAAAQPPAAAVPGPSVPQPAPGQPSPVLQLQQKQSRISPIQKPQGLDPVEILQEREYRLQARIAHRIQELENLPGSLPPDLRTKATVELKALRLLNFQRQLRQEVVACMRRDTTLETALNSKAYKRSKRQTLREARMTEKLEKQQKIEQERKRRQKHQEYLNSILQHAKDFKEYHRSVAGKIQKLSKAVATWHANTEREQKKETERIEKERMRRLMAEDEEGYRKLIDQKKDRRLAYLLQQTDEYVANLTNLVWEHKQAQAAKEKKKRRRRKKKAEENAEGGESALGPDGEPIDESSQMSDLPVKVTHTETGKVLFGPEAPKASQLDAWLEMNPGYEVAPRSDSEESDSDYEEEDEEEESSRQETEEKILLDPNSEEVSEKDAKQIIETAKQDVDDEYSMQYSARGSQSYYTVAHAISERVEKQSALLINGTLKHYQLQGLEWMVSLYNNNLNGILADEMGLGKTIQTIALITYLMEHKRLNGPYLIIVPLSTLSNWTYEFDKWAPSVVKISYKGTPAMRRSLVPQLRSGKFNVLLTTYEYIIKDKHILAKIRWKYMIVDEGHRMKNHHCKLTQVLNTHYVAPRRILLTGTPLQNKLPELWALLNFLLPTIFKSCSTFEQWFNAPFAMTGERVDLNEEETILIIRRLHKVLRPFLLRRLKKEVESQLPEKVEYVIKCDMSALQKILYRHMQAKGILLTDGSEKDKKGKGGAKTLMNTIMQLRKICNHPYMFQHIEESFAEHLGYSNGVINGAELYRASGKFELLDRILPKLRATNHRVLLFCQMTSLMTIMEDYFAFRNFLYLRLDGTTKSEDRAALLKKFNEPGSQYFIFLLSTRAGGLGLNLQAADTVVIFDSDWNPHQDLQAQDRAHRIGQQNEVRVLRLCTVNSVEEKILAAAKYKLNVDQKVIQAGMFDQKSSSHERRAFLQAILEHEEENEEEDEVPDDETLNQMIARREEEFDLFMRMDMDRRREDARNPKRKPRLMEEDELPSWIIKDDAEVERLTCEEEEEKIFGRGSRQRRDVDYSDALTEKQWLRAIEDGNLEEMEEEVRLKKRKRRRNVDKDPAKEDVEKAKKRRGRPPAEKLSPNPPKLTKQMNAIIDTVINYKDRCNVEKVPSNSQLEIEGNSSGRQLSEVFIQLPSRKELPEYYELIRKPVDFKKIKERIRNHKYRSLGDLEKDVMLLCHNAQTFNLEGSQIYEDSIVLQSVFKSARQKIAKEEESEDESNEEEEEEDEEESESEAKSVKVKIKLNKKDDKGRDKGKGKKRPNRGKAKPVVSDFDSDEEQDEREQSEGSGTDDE

IC50 [1]	delta Tm Staurosporine positive control [2]	ΔTm [2]	delta Tm Staurosporine positive control (Peregrin (Homo sapiens))	ΔTm (Peregrin (Homo sapiens))	Structure (SMILES)
13.8 nM (active)	-0.578	-0.226	-0.0506	-1.23	COC[C@H](NC(=O)c1ccn(S(C)(=O)=O)c1)C(=O)Nc1nc(-c2cccc(-c3ccn(C)n3)c2)cs1
1880 nM (not active)	-0.578	-0.482	-0.0506	-1.18	C[C@H](NC(=O)c1cn(C2(C#N)CC2)cn1)C(=O)Nc1nc(-c2cccc(-c3ccn(C)n3)c2)cs1
